# Test results published in patent publication US9334271B2, “Purine derivatives and their use in the treatment of disease” (Novarits AG, priority 2012, dated 2016).
# Read-outs that look alike come from different tables or passages of the source.
# Tests used:
# [1] = test system: cellular mTOR kinase activity (phosphorylation of Thr 389 of S6K1) in TSC1-/- MEFs; assay: Test 2: Cellular mTOR assay (P-P70S6K T389 Surefire); assay type: cell-based; details: Mus musculus
# Description: Test 2: Cellular mTOR Assay
# 30 μl are added per well to a 384 well-plate using a Multidrop instrument (Thermo scientific), resulting in 4000 cells/well. The plates are incubated at 37° C./5% CO2 for 20 hours (to allow for settling and adherance to the surface).
# Eight 3-fold serial dilutions of test-compounds (beginning at 1.8 mM) are prepared in 90% DMSO and compiled on 384 well master plates (Greiner). A pan-pPI3K/mTOR inhibitor (0.8 mM of 8-(6-methoxy-pyridin-3-yl)-3-methyl-1-(4-piperazin-1-yl-3-trifluoromethyl-phenyl)-1,3-dihydro-imidazo[4,5-c]quinolin-2-one in 90% DMSO) is added to the wells for the low control. 90% DMSO is added to the wells for the high controls. Compounds are provided as 250 nl shots (Hummingbird) in 384 well-polypropylene microplates (compound plates). 50 μl of growth medium is added to the compound plates (dilution 1:200) with the Multidrop. After shaking (1 min at 2000 rpm), 10 μl of the first dilution is then transferred to the cell plate with a Matrix Plate Mate 2×3 pipettor (final dilution 1:4). After 1 hour of treatment, medium is removed from the plate and 20 μl of Surefire lysis buffer is added per well with the Multidrop.
# Cell lysates are frozen for 15 minutes, thawed with shaking and transferred to the experimental 384 well-Proxiplate (5 μl/well) for the P-P70S6K (T389) Surefire assay (Perkin Elmer #TGR70S50). The first mix is composed of the reaction buffer (containing the specific antibody), the activation buffer and the acceptor beads (40 vol, 10 vol and 1 vol respectively). 5 μl per well is added to the lysates with a Zephyr® SPE Workstation (Caliper Life Sciences) and incubated for 2 hours with shaking at room temperature. After this incubation time, the second mix of dilution buffer and donor beads (20 vol and 1 vol respectively) is added to the plate with the same instrument (2 μl/well). After 2 hours, the plate can be read with an EnVision® Multilabel Reader (Perkin Elmer). Since the beads are light sensitive, their transfer and incubation is executed in a dark room (greenlight).
# The raw data is used to generate dose response curves for test compounds and IC50 values calculated therefrom.
# H4 mCherry-GFP-LC3 cells = assay: Test 3: Autophagy assay (mCherry-GFP-LC3 reporter, high-content imaging); assay type: cell-based, human; details: 16-18 h treatment, mCherry-positive LC3 puncta/cell
# Excerpt: Autophagy is a catabolic pathway that degrades bulk cytosol in lysosomal compartments enabling amino acids and fatty acids to be recycled. One of the key regulators of autophagy is the mammalian target of rapamycin (mTOR), a conserved serine/threonine kinase which suppresses the initiation of the autophagic process when nutrients, growth factors and energy are available. To quantify autophagy induction by mTOR inhibitors, we use a mCherry-GFP-LC3 reporter which is amenable to retroviral delivery into mammalian cells, stable expression and analysis by fluorescence microscopy.
# The amino acid sequence of the mCherry-GFP-LC3 construct is shown below (SEQ ID NO: 1). The mCherry sequence is underlined, GFP sequence is in bold and LC3A sequence is boxed.
# Described hereinafter is an imaging protocol and image recognition algorithm to visualize and measure changes in the autophagic pathway.
# Quantification of Autophagy Using High-Content Imaging and Analysis
# • 1. Day 0: Cell plating. Subconfluent H4 mCherry-GFP-LC3 cells are harvested by trypsinization, resuspended in growth medium, and counted (H4 cells: Human neuroglioma cell line (ATCC)). A cell suspension of 66′000 cells/mL is prepared and 30 μL are added into the wells of a 384-well plate using an electronic multichannel pipette. […] The cell plates are briefly spun down and placed at 37° C. and 5% CO2. • 2. Day 1: Compound treatment. Compound dose responses are prepared in DMSO. The dose responses are then diluted 1:50 in medium. 10 ul of the diluted compound is added to 30 ul of cells, yielding a final 1:200 dilution of the original compound and final of 0.5% DMSO. Compound-treatments are performed in triplicates. The 384-well plates are placed at 37° C. and 5% CO2. Compound treatment is performed for 16-18 h (see Note 1). • 3. Day 2: Cell fixation. Cells are fixed by adding 10 μL/well 5× concentrated Mirsky's fixative supplemented with 25 μg/mL Hoechst33342. […] The 384-well plate is briefly spun down and incubated for 1 h at room temperature. Cells are then washed using a 384-well plate washer using a protocol which aspirates the volume down to 10 μL/well before dispensing 100 μL/well 1×TBS. Aspiration and dispensing steps are repeated 4 times and a final volume of 100 μL/well is left. The plate is sealed using an adhesive PCR foil. • 4. Imaging. The bottom of the plate is cleaned with 70% ethanol and then imaged using the InCell 1000 automated epifluorescence microscope. 20× magnification is used and 4 different areas (fields) are imaged per well, this typically captures a total of around 400 cells per well. Hoechst33342 images are acquired using an excitation of 360 nm (D360_40x filter), an emission of 460 nm (HQ460_40M filter) and an exposure time of 150 ms. GFP images are acquired using an excitation of 475 nm (S475_20x filter), an emission of 535 nm (HQ535_50M filter) and an exposure time of 1 s. mCherry images are acquired using an excitation of 535 nm (HQ535_50x filter), an emission of 620 nm (HQ620_60M filter) and an exposure time of 1 s. A quadruple band pass mirror is used for all images. • 5. Image analysis. The InCell Analysis software is used to analyze the images using the Multi Target Analysis algorithm. First, nuclei are detected in the Hoechst33342 image using top-hat segmentation and a minimal nuclear area of 50 μm^2. Cells are defined using a collar of 10 μm around the nuclei. Second, puncta (organelles) are identified in the mCherry image inside the cells using multi-top-hat segmentation. Third, the mask of the mCherry puncta is transferred onto the GFP image. Fourth, the GFP fluorescence intensity inside the mCherry puncta mask is measured (reference intensity). • 6. The ‘organelles’ parameter reflects mCherry-positive puncta of the mCherry-GFP-LC3 reporter and is used to calculate ‘LC3 puncta/cell’. […]
# recombinant human mTOR = recombinant human mTOR (Homo sapiens (Human), UniProt P42345); assay: Test 1: mTOR ATP-binding assay based on TR-FRET; details: GST-tagged truncated human mTOR, tracer-314, TR-FRET
# recombinant human mTOR, sequence (P42345 1360-2549): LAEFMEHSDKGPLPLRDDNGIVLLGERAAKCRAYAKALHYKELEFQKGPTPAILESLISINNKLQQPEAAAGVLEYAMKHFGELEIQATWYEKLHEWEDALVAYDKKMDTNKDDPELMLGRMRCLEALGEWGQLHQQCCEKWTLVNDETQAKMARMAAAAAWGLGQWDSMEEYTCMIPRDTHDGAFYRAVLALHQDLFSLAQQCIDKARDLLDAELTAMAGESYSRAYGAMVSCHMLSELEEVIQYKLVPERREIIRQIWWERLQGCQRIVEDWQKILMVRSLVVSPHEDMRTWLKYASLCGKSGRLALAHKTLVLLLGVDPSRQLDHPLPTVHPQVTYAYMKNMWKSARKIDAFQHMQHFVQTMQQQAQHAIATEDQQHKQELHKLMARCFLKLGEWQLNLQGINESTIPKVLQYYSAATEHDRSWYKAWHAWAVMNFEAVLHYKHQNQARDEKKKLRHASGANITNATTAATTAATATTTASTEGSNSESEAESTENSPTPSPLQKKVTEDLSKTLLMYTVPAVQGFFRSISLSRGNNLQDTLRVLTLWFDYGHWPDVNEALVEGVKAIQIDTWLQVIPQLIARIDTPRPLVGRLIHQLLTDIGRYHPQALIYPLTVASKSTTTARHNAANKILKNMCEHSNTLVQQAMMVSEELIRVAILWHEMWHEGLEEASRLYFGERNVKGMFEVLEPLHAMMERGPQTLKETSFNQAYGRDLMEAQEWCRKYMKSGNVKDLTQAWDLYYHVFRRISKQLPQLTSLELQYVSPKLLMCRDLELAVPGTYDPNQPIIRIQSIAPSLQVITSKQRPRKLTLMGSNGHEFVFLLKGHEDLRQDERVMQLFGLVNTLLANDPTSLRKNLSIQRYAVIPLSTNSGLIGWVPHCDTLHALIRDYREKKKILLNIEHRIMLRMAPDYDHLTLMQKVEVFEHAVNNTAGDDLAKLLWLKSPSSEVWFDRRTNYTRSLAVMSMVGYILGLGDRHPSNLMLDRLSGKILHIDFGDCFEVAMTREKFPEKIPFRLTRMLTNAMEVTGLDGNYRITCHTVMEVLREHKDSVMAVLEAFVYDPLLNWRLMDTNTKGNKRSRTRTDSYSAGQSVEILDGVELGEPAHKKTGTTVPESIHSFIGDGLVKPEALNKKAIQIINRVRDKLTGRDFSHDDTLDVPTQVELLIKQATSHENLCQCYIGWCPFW
# Description: Test 1: mTOR ATP-Binding Assay Based on TR-FRET for Recombinant Human mTOR
# 2. The final volume of the assay is 10 μL and the order of addition is as follows:
# 50 nL of compounds dilution;
# Incubated for 60 minutes at room temperature.
# TR-FRET measured in Biotek Synergy2 reader at: • Excitation 340 nm/emission 665 nm • Excitation 340 nm/emission 620 nm
# The following final concentrations are used:
# 1 nM Europium anti-GST antibody;
# The following controls are used:
# 3. IC50 determinations may be performed as follows:
# The Emission ratio is converted to percentage of inhibition for each compound concentration. IC50 values are calculated by fitting a sigmoidal dose-response curve to a plot of assay readout over compound concentration. All fits and analysis are performed with the program XLfit4 (ID Business Solutions, Guildford, UK).
# [2] = TSC1-/- MEFs, 1 hour treatment, P-P70S6K (T389), read-out: Test 2: T389 cellular assay IC50
# [3] = 1 h, read-out: Test 2: T389 cellular assay IC50 (nM)
Compound,EC50 (H4 mCherry-GFP-LC3 cells; Homo sapiens) [nM],IC50 (recombinant human mTOR) [nM],"IC50 [1, 3] [nM]",also measured
"C[C@@H]1COCCN1c1nc(N2CCOC[C@H]2C)c2nc(-c3ccccn3)[nH]c2n1 [Example 1, 2,6-Bis-((R)-3-methyl-morpholin-4-yl)-8-pyridin-2-yl-9H-purine]",351,139,,"IC50 [1, 2]: 1010 nM"
"C[C@@H]1COCCN1c1nc(N2CCOC[C@@H]2C)nc2[nH]c(-c3cc[nH]n3)nc12 [Example 2, 2-((S)-3-Methyl-morpholin-4-yl)-6-((R)-3-methyl-morpholin-4-yl)-8-(1H-pyrazol-3-yl)-9H-purine]",1050,104,,"IC50 [1, 2]: 131 nM"
"C[C@@H]1COCCN1c1nc(N2CCCOCC2)nc2[nH]c(-c3cccc4[nH]ccc34)nc12 [Example 3, 8-(1H-Indol-4-yl)-6-((R)-3-methyl-morpholin-4-yl)-2-[1,4]oxazepan-4-yl-9H-purine]",422,164,76,
"C[C@@H]1COCCN1c1nc(N2CCOC[C@H]2C)c2nc(-c3ccc(-c4ncc[nH]4)cc3)[nH]c2n1 [Example 4, 8-[4-(1H-Imidazol-2-yl)-phenyl]-2,6-bis-((R)-3-methyl-morpholin-4-yl)-9H-purine]",2160,2120,,"IC50 [1, 2]: 1550 nM"
"C[C@@H]1COCCN1c1nc(N2CCOC[C@@H]2C)nc2[nH]c(-c3cc(F)cc4[nH]ccc34)nc12 [Example 5, 8-(6-Fluoro-1H-indol-4-yl)-2-((S)-3-methyl-morpholin-4-yl)-6-((R)-3-methyl-morpholin-4-yl)-9H-purine]",,21,,"IC50 [1, 2]: 122 nM"
"C[C@@H]1COCCN1c1nc(N2CCOC[C@H]2C)c2nc(-c3cc(CO)cc4[nH]ccc34)[nH]c2n1 [Example 6, {4-[2,6-Bis-((R)-3-methyl-morpholin-4-yl)-9H-purin-8-yl]-1H-indol-6-yl}-methanol]",423,66,1180,
"C[C@@H]1COCCN1c1nc(N2CCOC[C@@H]2C)nc2[nH]c(-c3ccccn3)nc12 [Example 7, 2-((S)-3-Methyl-morpholin-4-yl)-6-((R)-3-methyl-morpholin-4-yl)-8-pyridin-2-yl-9H-purine]",1320,184,,"IC50 [1, 2]: 997 nM"
"c1ccc(-c2nc3c(N4CCOCC4)nc(N4CCOCC4)nc3[nH]2)nc1 [Example 9, 2,6-Di-morpholin-4-yl-8-pyridin-2-yl-9H-purine]",,860,,
"C[C@@H]1COCCN1c1nc(N2C3CCC2CC(O)C3)nc2[nH]c(-c3cccc4[nH]ccc34)nc12 (stereo partly drawn) [Example 13, 8-[8-(1H-Indol-4-yl)-6-((R)-3-methyl-morpholin-4-yl)-9H-purin-2-yl]-8-aza-bicyclo[3.2.1]octan-3-ol]",935,,,
"C[C@@H]1COCCN1c1nc(N2C3CCC2CC(O)C3)nc2[nH]c(-c3cccc4[nH]ccc34)nc12 (stereo partly drawn) [Example 14, 8-[8-(1H-Indol-4-yl)-6-((R)-3-methyl-morpholin-4-yl)-9H-purin-2-yl]-8-aza-bicyclo[3.2.1]octan-3-ol]",,,,EC50 (H4 mCherry-GFP-LC3 cells): 855 nM
"C[C@@H]1COCCN1c1nc(N2CC3(CCCOC3)C2)nc2[nH]c(-c3cccc4[nH]ccc34)nc12 [Example 17, 8-(1H-Indol-4-yl)-6-((R)-3-methyl-morpholin-4-yl)-2-(6-oxa-2-aza-spiro[3.5]non-2-yl)-9H-purine]",663,,,
"C[C@@H]1COCCN1c1nc(N2CC3COCC3C2)nc2[nH]c(-c3cccc4[nH]ccc34)nc12 (stereo partly drawn) [Example 19, 8-(1H-Indol-4-yl)-6-((R)-3-methyl-morpholin-4-yl)-2-(tetrahydro-furo[3,4-c]pyrrol-5-yl)-9H-purine]",727,,471,
"C[C@@H]1COCCN1c1nc(N2CCC3COCC3C2)nc2[nH]c(-c3cccc4[nH]ccc34)nc12 (stereo partly drawn) [Example 20, 2-(Hexahydro-furo[3,4-c]pyridin-5-yl)-8-(1H-indol-4-yl)-6-((R)-3-methyl-morpholin-4-yl)-9H-purine]",,,,Test 3: Autophagy EC50 (nM) (H4 mCherry-GFP-LC3 cells): n.m.
"CC(C)[C@@H]1COCCN1c1nc(N2CCOC[C@H]2C)c2nc(-c3cccc4[nH]ccc34)[nH]c2n1 [Example 21, 8-(1H-Indol-4-yl)-2-((R)-3-isopropyl-morpholin-4-yl)-6-((R)-3-methyl-morpholin-4-yl)-9H-purine]",,122,179,
"C[C@@H]1COCCN1c1nc(N2CCC23CCOCC3)nc2[nH]c(-c3cccc4[nH]ccc34)nc12 [Example 24, 8-(1H-Indol-4-yl)-6-((R)-3-methyl-morpholin-4-yl)-2-(7-oxa-1-aza-spiro[3.5]non-1-yl)-9H-purine]",302,,,
"C[C@@H]1COCCN1c1nc(N2CCO[C@H](CO)C2)nc2[nH]c(-c3cccc4[nH]ccc34)nc12 [Example 25, {(S)-4-[8-(1H-Indol-4-yl)-6-((R)-3-methyl-morpholin-4-yl)-9H-purin-2-yl]-morpholin-2-yl}-methanol]",,380,1930,
"C[C@@H]1COCCN1c1nc(N2CCO[C@@H](CO)C2)nc2[nH]c(-c3cccc4[nH]ccc34)nc12 [Example 26, {(R)-4-[8-(1H-Indol-4-yl)-6-((R)-3-methyl-morpholin-4-yl)-9H-purin-2-yl]-morpholin-2-yl}-methanol]",,67,318,
